Read-outs that look alike come from different tables or passages of the source.
Legend:
[1] = test system: Key Grass and Sedge Weeds as well as Grass Crops; assay: Post-Emergent Test II: postemergent herbicidal activity, visual rating after 14 d (Table 8); assay type: in vivo; details: post-emergence, 336 h; for pest or weed control at 35 g/ha: 35 g ai/ha; for pest or weed control at 70 g/ha: 70 g ai/ha; for pest or weed control at 140 g/ha: 140 g ai/ha
In short: (§1)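 Plants were raised in a greenhouse for 7-21 d and treated once at the first or second true leaf stage. Compounds, dissolved in 97:3 acetone:DMSO then diluted into an aqueous acetone/isopropanol/crop oil/Triton X-155 carrier, were applied by overhead track sprayer at 187 L/ha. After 14 d with subirrigation, injury was scored visually from 0 (none) to 100 (complete kill).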

[2] = test system: Key Broadleaf Weed and Crop Species; assay: Post-Emergent Test II: postemergent herbicidal activity, visual rating after 14 d (Table 7); assay type: in vivo; details: post-emergence, 336 h; for pest or weed control at 35 g/ha: 35 g ai/ha; for pest or weed control at 70 g/ha: 70 g ai/ha; for pest or weed control at 140 g/ha: 140 g ai/ha
In short: as §1

[3] = barnyardgrass (Echinochloa crus-galli), read-out: Visual Growth Reduction (%) 14 Days After Application, ECHCG
[4] = giant foxtail (Setaria faberi), read-out: Visual Growth Reduction (%) 14 Days After Application, SETFA
[5] = maize, corn (Zea mays), read-out: Visual Growth Reduction (%) 14 Days After Application, ZEAMX
[6] = rice (Oryza sativa), read-out: Visual Growth Reduction (%) 14 Days After Application, ORYSA
[7] = wheat, spring (Triticum aestivum), read-out: Visual Growth Reduction (%) 14 Days After Application, TRZAS
[8] = yellow nutsedge (Cyperus esculentus), read-out: Visual Growth Reduction (%) 14 Days After Application, CYPES
[9] = ABUTH: velvetleaf (Abutilon theophrasti), read-out: Visual Growth Reduction (%) 14 Days After Application ABUTH
[10] = AMARE: redroot pigweed (Amaranthus retroflexus), read-out: Visual Growth Reduction (%) 14 Days After Application AMARE
[11] = BRSNN: oilseed rape, canola (Brassica napus), read-out: Visual Growth Reduction (%) 14 Days After Application BRSNN
[12] = CHEAL: lambsquarters (Chenopodium album), read-out: Visual Growth Reduction (%) 14 Days After Application CHEAL
[13] = EPHHL: wild poinsettia (Euphorbia heterophylla), read-out: Visual Growth Reduction (%) 14 Days After Application EPHHL
[14] = HELAN: sunflower (Helianthus annuus), read-out: Visual Growth Reduction (%) 14 Days After Application HELAN

Structure (SMILES): Nc1c(F)c(-c2ccc3c(c2)COC3)nc(C(=O)O)c1Cl [Compound 104]
- pest or weed control at 35 g/ha [1, 3]: 0 to 29%
- pest or weed control at 70 g/ha [1, 3]: 0 to 29%
- pest or weed control at 140 g/ha [1, 3]: 0 to 29%
- pest or weed control at 35 g/ha [1, 4]: 0 to 29%
- pest or weed control at 70 g/ha [1, 4]: 0 to 29%
- pest or weed control at 140 g/ha [1, 4]: 0 to 29%
- pest or weed control at 35 g/ha [1, 5]: 0 to 29%
- pest or weed control at 70 g/ha [1, 5]: 0 to 29%
- pest or weed control at 140 g/ha [1, 5]: 0 to 29%
- pest or weed control at 35 g/ha [1, 6]: 0 to 29%
- pest or weed control at 70 g/ha [1, 6]: 0 to 29%
- pest or weed control at 140 g/ha [1, 6]: 0 to 29%
- pest or weed control at 35 g/ha [1, 7]: 0 to 29%
- pest or weed control at 70 g/ha [1, 7]: 0 to 29%
- pest or weed control at 140 g/ha [1, 7]: 0 to 29%
- pest or weed control at 35 g/ha [1, 8]: 0 to 29%
- pest or weed control at 70 g/ha [1, 8]: 0 to 29%
- pest or weed control at 140 g/ha [1, 8]: 0 to 29%
- pest or weed control at 35 g/ha [2, 9]: 0 to 29%
- pest or weed control at 70 g/ha [2, 9]: 0 to 29%
- pest or weed control at 140 g/ha [2, 9]: 0 to 29%
- pest or weed control at 35 g/ha [2, 10]: 0 to 29%
- pest or weed control at 70 g/ha [2, 10]: 0 to 29%
- pest or weed control at 140 g/ha [2, 10]: 0 to 29%
- pest or weed control at 35 g/ha [2, 11]: 0 to 29%
- pest or weed control at 70 g/ha [2, 11]: 0 to 29%
- pest or weed control at 140 g/ha [2, 11]: 0 to 29%
- pest or weed control at 35 g/ha [2, 12]: 45 to 59%
- pest or weed control at 70 g/ha [2, 12]: 85 to 94%
- pest or weed control at 140 g/ha [2, 12]: 85 to 94%
- pest or weed control at 35 g/ha [2, 13]: 0 to 29%
- pest or weed control at 70 g/ha [2, 13]: 0 to 29%
- pest or weed control at 140 g/ha [2, 13]: 0 to 29%
- pest or weed control at 35 g/ha [2, 14]: 45 to 59%
- pest or weed control at 70 g/ha [2, 14]: 75 to 84%
- pest or weed control at 140 g/ha [2, 14]: 75 to 84%

From US9149038B2, “4-amino-6-(heterocyclic)picolinates and 6-amino-2-(heterocyclic)pyrimidine-4-carboxylates and their use as herbicides” (Dow AgroSciences LLC, priority 2013, dated 2015)
